Assay results: ChEMBL document CHEMBL1138998, “A topological function based on spectral moments for predicting affinity toward A3 adenosine receptors” (Bioorg Med Chem Lett, 2006)

Molecular target: T1, Adenosine receptor A3 (Rattus norvegicus, UniProt P28647)
T1 sequence (P28647 whole entry): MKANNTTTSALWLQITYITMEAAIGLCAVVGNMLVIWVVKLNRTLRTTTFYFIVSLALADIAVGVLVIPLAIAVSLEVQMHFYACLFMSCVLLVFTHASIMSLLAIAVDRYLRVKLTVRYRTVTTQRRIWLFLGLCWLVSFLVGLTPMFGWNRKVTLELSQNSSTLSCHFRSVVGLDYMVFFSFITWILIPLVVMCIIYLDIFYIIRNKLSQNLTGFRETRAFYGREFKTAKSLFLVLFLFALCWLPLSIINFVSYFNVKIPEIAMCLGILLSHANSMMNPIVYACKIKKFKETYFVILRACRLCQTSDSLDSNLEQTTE
Test: Displacement of [125I]AB-MECA from rat adenosine A3 receptor expressed in CHO cells
Assay type: cell-based

Structure (SMILES) | Ki
CCNC(=O)[C@H]1O[C@@H](n2cnc3c(NC(=O)Nc4ccc(S(=O)(=O)Nc5cc(C)on5)cc4)ncnc32)[C@H](O)[C@@H]1O | 155 nM
CCNC(=O)[C@H]1O[C@@H](n2cnc3c(NC(=O)Nc4ccc(S(=O)(=O)Nc5ccccn5)cc4)ncnc32)[C@H](O)[C@@H]1O | 54.1 nM
CCNC(=O)[C@H]1O[C@@H](n2cnc3c(NC(=O)Nc4ccc(S(=O)(=O)Nc5ncccn5)cc4)ncnc32)[C@H](O)[C@@H]1O | 405 nM
